Assays:
[1] = target: T1, soluble guanylate cyclase (sGC) (Bos taurus, UniProt P16068+P19687); assay: Activity of purified sGC stimulated with DEA/NO; format: biochemical, bovine; details: control
T1 construct: The activity of sGC purified from bovine lung; from tissue; host or cells: bovine lung
T1 sequence (P19687 1-691): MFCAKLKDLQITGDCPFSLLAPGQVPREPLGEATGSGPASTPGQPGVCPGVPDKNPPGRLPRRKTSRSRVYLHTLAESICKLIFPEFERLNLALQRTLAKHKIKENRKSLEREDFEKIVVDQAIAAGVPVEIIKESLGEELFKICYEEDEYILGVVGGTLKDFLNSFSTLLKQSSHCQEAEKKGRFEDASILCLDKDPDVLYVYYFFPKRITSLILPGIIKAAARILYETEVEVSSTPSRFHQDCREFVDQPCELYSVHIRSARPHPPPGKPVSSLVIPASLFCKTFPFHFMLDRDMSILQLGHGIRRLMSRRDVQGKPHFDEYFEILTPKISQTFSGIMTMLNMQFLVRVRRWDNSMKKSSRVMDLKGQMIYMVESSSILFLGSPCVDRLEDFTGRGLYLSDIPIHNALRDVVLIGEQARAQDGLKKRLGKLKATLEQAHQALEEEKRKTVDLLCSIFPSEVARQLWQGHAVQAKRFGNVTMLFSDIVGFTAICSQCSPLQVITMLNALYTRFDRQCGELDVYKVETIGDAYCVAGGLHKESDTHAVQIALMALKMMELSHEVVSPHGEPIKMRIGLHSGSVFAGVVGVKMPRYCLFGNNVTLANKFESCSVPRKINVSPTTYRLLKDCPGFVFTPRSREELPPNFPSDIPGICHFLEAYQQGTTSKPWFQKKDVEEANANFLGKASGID
T1 sequence (P16068 1-619): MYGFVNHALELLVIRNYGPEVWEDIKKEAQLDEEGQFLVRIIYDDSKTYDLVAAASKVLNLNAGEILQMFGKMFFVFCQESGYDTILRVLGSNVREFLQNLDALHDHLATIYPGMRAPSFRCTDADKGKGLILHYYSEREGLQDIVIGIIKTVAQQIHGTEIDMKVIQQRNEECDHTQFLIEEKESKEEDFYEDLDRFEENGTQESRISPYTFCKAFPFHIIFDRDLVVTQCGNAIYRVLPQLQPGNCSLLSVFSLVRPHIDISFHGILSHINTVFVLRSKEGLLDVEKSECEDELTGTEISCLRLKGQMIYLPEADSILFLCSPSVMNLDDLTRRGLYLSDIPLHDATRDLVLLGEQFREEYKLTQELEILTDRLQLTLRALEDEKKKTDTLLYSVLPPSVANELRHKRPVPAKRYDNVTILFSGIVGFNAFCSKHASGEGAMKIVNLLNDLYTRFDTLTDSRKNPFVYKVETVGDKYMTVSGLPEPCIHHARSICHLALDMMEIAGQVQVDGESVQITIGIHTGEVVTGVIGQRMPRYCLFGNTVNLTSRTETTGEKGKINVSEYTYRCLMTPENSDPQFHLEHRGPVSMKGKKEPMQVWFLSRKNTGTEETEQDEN
Procedure: The activity of sGC purified from bovine lung was determined as formation of [^32P]cGMP from [α-^32P]GTP. The purified enzyme (50 ng) was incubated at 37°C for 10 min in a final volume of 0.1 ml in the absence or presence of flavorings with the NO donor DEA/NO at concentrations indicated in the figure legends, followed by isolation of [^32P]cGMP and quantification of radioactivity (Cerenkov radiation) in a β counter.
To test for reversibility of inhibition, sGC (50 ng) was preincubated in the absence or presence of the respective compounds for 5 minutes at 37°C, followed by 50-fold dilution in the assay mixtures and incubation with DEA/NO at 37°C for 10 minutes.

rat aortic rings = assay: Relaxation of U-46619 precontracted aortic rings to DEA/NO; details: read-out: EC50 of vascular relaxation to DEA/NO
Procedure: Animal experiments were performed in compliance with the Austrian law on experimentation with laboratory animals (last amendment 2013) based on the European Union guidelines for the Care and the Use of Laboratory Animals (European Union Directive 2010/63/EU). Unsexed Sprague-Dawley rats (obtained from Charles River, Sulzfeld, Germany) were housed at the local animal facility in approved cages. They were fed standard chow (Altromin 3023; obtained from Königshofer Futtermittel, Ebergassing, Austria) and received water ad libitum. Animals were euthanized in a box that was gradually filled with CO2 until vital signs had ceased (cessation of respiration and circulation). […]
For isometric tension measurements, vessel rings with intact endothelium were suspended in 5-ml organ baths containing oxygenated Krebs-Henseleit buffer (concentrations in mM: NaCl 118.4, NaHCO3 25, KCl 4.7, KH2PO4 1.2, CaCl2 2.5, MgCl2 1.2, D-Glucose 11; pH 7.4), as previously described in detail. After equilibration for 60 min at the optimal resting tension of 20 mN, maximal contractile activity was determined with a depolarizing solution containing 60 mM K^+. […]
Effects are expressed as percent of relaxation of U-46619-induced contraction. Concentration-response curves of different ring segments from a single animal were averaged and counted as an individual experiment.

[2] = tested on: endothelium-denuded rat aortic rings; assay: cAMP and cGMP levels in endothelium-denuded aortic rings; details: 10 µM
Source text: 1 S4 Table. […]
2 endothelium-denuded rat aortic rings.
Flavoring (fmol x mg-1) (fmol x mg-1)
4 En d o th e liu m-denuded rings, treated with test compounds as described in the
5 Materials and methods section of the main text, were freeze-clamped when maximal
6 relaxation had been reached. Rings were homogenized in 5% trichloroacetic acid
7 and analyzed for cAMP and cGMP by radioimmunoassay. Forskolin and DEA/NO
8 were used to induce maximal accumulation of cAMP and cGMP, respectively. Data
9 shown are mean values±SEM of 3 (forskolin and DEA/NO) or 6 (basal,
10 cinnamaldehyde and eugenol) rings; n.d., not determined, *p<0.05 vs. basal (ANOVA
11 and Dunnett's post hoc test).

`CCN(CC)[N+]([O-])=NO` [DEA/NO, 2,2-Diethyl-1-nitroso-oxyhydrazine, reference compound] was tested, and the “Maximal sGC activity with DEA/NO” value ([1]; no flavoring) was 28±0.9 μmol cGMP x min^-1 x mg^-1, the EC50 ([1]; no flavoring (0.1% DMSO), 95% CI, read-out: EC50 of DEA/NO for sGC stimulation) was 37 nM and the EC50 (rat aortic rings) was 43 nM. It also gave a cGMP [2] of 4917±1483 fmol x mg-1.
